For orientation: Ki means a dissociation constant, usually derived from enzyme kinetics or from competition with a known ligand.

Consider 1 compound from ChEMBL document CHEMBL3638502, “Isonicotinamide orexin receptor antagonists” (2013).

For the assay, the target named is T1, Orexin receptor type 2 (Homo sapiens, UniProt O43614).
T1 sequence (O43614 whole entry): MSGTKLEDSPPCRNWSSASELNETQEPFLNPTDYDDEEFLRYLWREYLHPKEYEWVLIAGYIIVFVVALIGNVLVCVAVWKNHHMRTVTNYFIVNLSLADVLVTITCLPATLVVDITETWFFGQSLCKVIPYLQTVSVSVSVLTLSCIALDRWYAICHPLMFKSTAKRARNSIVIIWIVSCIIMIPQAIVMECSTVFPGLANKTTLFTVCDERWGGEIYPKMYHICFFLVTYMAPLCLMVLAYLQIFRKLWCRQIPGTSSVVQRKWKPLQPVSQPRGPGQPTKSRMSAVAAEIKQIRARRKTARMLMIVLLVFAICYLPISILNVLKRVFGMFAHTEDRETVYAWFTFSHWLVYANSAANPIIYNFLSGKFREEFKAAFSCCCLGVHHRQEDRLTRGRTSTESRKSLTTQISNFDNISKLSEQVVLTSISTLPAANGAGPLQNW
Briefly: FLIPR Ca2+ Flux Assay: Assay methodology using FLIPR Ca2+ Flux Assay (Okumura et al., Biochem. Biophys. Res. Comm. 280:976-981, 2001). Format: functional. For orientation: Calcium assays in cells follow changes in intracellular calcium, usually with a dye or a luminescent sensor.

Regarding `COc1ccc(CNC(=O)c2cc(-c3cncc(C)c3)ncc2-c2ccccc2)nc1OC`, the inhibitory constant (Ki) was determined as 0.72 nM.
